Data published in patent publication US11173145B2, “Compounds useful as inhibitors of indoleamine 2,3-dioxygenase and/or tryptophan dioxygenase” (Board of Regents, The University of Texas System, priority 2017, dated 2021).

Each compound was assayed against T1, IDO1 (Homo sapiens, UniProt P14902) (assay: IDO1 cell-based assay (HeLa cells, IFNgamma-induced, N-formylkynurenine/L-tryptophan by RFMS)). Settings: 10 ng/mL IFNgamma, 24 hours.
T1 construct: endogenous in cells; host or cells: HeLa cells (ATCC), IFNgamma-induced
How it was run: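 N-formylkynurenine and tryptophan peak areas in media measured by RFMS (C18, isocratic, d-Trp standard), giving IC50 values by regression. Source: HeLa cells incubated 24 h with IFNgamma (10 ng/mL) plus test compound at 0.5% DMSO; parallel CellTiter-Glo viability read.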

T1 sequence (P14902 whole entry): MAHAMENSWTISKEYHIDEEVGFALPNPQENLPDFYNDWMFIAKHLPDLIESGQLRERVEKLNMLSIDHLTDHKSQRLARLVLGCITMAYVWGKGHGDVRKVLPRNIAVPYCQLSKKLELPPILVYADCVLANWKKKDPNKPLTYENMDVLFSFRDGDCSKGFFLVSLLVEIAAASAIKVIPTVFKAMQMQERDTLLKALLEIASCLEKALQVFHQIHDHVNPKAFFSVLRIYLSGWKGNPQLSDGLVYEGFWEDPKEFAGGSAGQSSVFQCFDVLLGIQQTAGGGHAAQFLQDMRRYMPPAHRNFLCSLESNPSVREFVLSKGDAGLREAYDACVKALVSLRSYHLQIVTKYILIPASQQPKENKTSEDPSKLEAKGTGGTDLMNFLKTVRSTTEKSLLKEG

| Compound | IC50 |
| --- | --- |
| CC[C@@H](NC(=O)c1ccc(Cl)cc1)[C@H]1[C@@H]2C[C@@H](c3cnn(C4CC4)c3)C[C@@H]21 [Compound 292, 4-chloro-N—((R)-1-((1R,3S,5S, 6r)-3-(1-cyclopropyl-1H-pyrazol-4-yl)bicyclo[3.1.0]hexan-6-yl)propyl)benzamide] | < 200 nM |
| Cc1ccc(C(=O)NC[C@@H]2[C@H]3C[C@H](n4cnc5cc(F)c(F)cc54)C[C@@H]23)cn1 [Compound 317, N-(((1R,3s,5S,6r)-3-(5,6-difluoro-1H-benzo[d]imidazol-1-yl)bicyclo[3.1.0]hexan-6-yl)methyl)-6-methylnicotinamide] | 200 to 2000 nM |
| CC[C@@H](NC(=O)c1ccc(Cl)cc1)[C@H]1[C@@H]2C[C@@H](n3ccc(C4CC4)n3)C[C@@H]21 [Compound 343, 4-chloro-N-((R)-1-((1R,3S,5S,6r)-3-(3-cyclopropyl-1H-pyrazol-1-yl)bicyclo[3.1.0]hexan-6-yl)propyl)benzamide] | < 200 nM |
| O=C(NC[C@@H]1[C@H]2C[C@H](n3cnc4cc(F)c(F)cc43)C[C@@H]12)c1cccc(F)c1 [Compound 320, N-(((1R,3s,5S,6r)-3-(5,6-difluoro-1H-benzo[d]imidazol-1-yl)bicyclo[3.1.0]hexan-6-yl)methyl)-3-fluorobenzamide] | 200 to 2000 nM |
| CCC(NC(=O)c1ccc(Cl)cc1)[C@H]1[C@@H]2C[C@@H](n3ncc4cnccc43)C[C@@H]21 (stereo partly drawn) [Compound 51, N-(1-((1R,3s,5S,6r)-3-(1H-pyrazolo[4,3-c]pyridin-1-yl)bicyclo[3.1.0]hexan-6-yl)propyl)-4-chlorobenzamide] | < 200 nM |
| CCC(NC(=O)c1ccc(Cl)cc1)[C@H]1[C@@H]2C[C@@H](N3C(=O)Cc4cc(F)ccc43)C[C@@H]21 (stereo partly drawn) [Compound 121, 4-chloro-N-(1-((1R,3s,5S,6r)-3-(5-fluoro-2-oxoindolin-1-yl)bicyclo[3.1.0]hexan-6-yl)propyl)benzamide] | < 200 nM |
| CCC(NC(=O)c1ccc(Cl)cc1)[C@H]1[C@@H]2C[C@@H](O)C[C@@H]21 (single isomer, unassigned) [Compound 3] | 200 to 2000 nM |
| CC[C@@H](NC(=O)c1ccc(Cl)cc1)[C@H]1[C@@H]2C[C@@H](n3cc(Br)cn3)C[C@@H]21 [Compound 329, N-((R)-1-((1R,3S,5S,6r)-3-(4-bromo-1H-pyrazol-1-yl)bicyclo[3.1.0]hexan-6-yl)propyl)-4-chlorobenzamide] | < 200 nM |
| CCC(NC(=O)c1ccc(Cl)cc1)[C@H]1[C@@H]2C[C@@H](NS(=O)(=O)C3(C)CC3)C[C@@H]21 (stereo partly drawn) [Compound 160, 4-chloro-N-(1-((1R,3s,5S,6r)-3-((1-methylcyclopropane)-1-sulfonamido)bicyclo[3.1.0]hexan-6-yl)propyl)benzamide] | 200 to 2000 nM |
| CC(NC(=O)c1ccc(C#N)cc1)C1[C@H]2CC(O)C[C@@H]12 (stereo partly drawn) [Compound 105, 4-cyano-N-(1-((1R,3r,5S,6r)-3-hydroxybicyclo[3.1.0]hexan-6-yl)ethyl)benzamide] | > 5000 nM |
| CC[C@@H](NC(=O)c1ccc(Cl)cc1)[C@H]1[C@@H]2C[C@@H](n3cc(C(F)(F)F)cn3)C[C@@H]21 [Compound 332, 4-chloro-N-((R)-1-((1R,3S,5S,6r)-3-(4-(trifluoromethyl)-1H-pyrazol-1-yl)bicyclo[3.1.0]hexan-6-yl)propyl)benzamide] | < 200 nM |
| CCC(NC(=O)c1ccc(Cl)cc1)[C@H]1[C@@H]2C[C@@H](NS(C)(=O)=O)C[C@@H]21 (stereo partly drawn) [Compound 159, 4-chloro-N-(1-((1R,3s,5S,6r)-3-(methylsulfonamido)bicyclo[3.1.0]hexan-6-yl)propyl)benzamide] | 200 to 2000 nM |
| O=C(NC[C@@H]1[C@H]2C[C@H](n3cnc4cc(F)c(F)cc43)C[C@@H]12)c1cccc(Cl)c1 [Compound 316, 3-chloro-N-(((1R,3s,5S,6r)-3-(5,6-difluoro-1H-benzo[d]imidazol-1-yl)bicyclo[3.1.0]hexan-6-yl)methyl)benzamide] | 200 to 2000 nM |
| CC[C@@H](NC(=O)c1ccc(Cl)cc1)[C@H]1[C@@H]2C[C@@H](n3cc(C(C)(C)O)nn3)C[C@@H]21 [Compound 142, 4-chloro-N-((S)-1-((1R,3R,5S,6r)-3-(4-(2-hydroxypropan-2-yl)-1H-1,2,3-triazol-1-yl)bicyclo[3.1.0]hexan-6-yl)propyl)benzamide] | > 5000 nM |
| CCC(NC(=O)c1ccc(Cl)cc1)[C@H]1[C@@H]2C[C@@H](OC3CCOCC3)C[C@@H]21 (stereo partly drawn) [Compound 101, 4-chloro-N-(1-((1R,3s,5S,6r)-3-((tetrahydro-2H-pyran-4-yl)oxy)bicyclo[3.1.0]hexan-6-yl)propyl)benzamide] | 200 to 2000 nM |
| C=C(C)c1cn([C@@H]2C[C@@H]3[C@H](C2)[C@H]3C(CC)NC(=O)c2ccc(Cl)cc2)nn1 (stereo partly drawn) [Compound 262, 4-chloro-N-(1-((1R,3S,5S,6r)-3-(4-(propen-2-yl)-1H-1,2,3-triazol-1-yl)bicyclo[3.1.0]hexan-6-yl)propyl)benzamide] | < 200 nM |
| CC[C@@H](NC(=O)c1ccc(Cl)cc1)[C@H]1[C@@H]2C[C@@H](Oc3cnnc4ccccc34)C[C@@H]21 [Compound 104, 4-chloro-N-((R)-1-((1R,3S,5S,6r)-3-(cinnolin-4-yloxy)bicyclo[3.1.0]hexan-6-yl)propyl)benzamide] | < 200 nM |
| CC[C@@H](NC(=O)c1cccc(C#N)c1)[C@H]1[C@@H]2C[C@@H](n3cnc4cc(F)c(F)cc43)C[C@@H]21 [Compound 313, 3-cyano-N-((R)-1-((1R,3S,5S,6r)-3-(5,6-difluoro-1H-benzo[d]imidazol-1-yl)bicyclo[3.1.0]hexan-6-yl)propyl)benzamide] | < 200 nM |

Second part, the compound after the results:

| IC50 | Compound |
| --- | --- |
| < 200 nM | CCC(NC(=O)c1ccc(Cl)cc1)[C@H]1[C@@H]2C[C@@H](Oc3cc(C)nc4ccc(F)cc34)C[C@@H]21 (stereo partly drawn) [Compound 20, 4-chloro-N-(1-((1R,3s,5S,6r)-3-((6-fluoro-2-methylquinolin-4-yl)oxy)bicyclo[3.1.0]hexan-6-yl)propyl)benzamide] |
| < 200 nM | CC(C(=O)Nc1ccc(Cl)cc1)[C@H]1[C@@H]2C[C@@H](Oc3ccnc4ccc(F)cc34)C[C@@H]21 (stereo partly drawn) [Compound 347, N-(4-chlorophenyl)-2-((1R,3s,5S,6r)-3-((6-fluoroquinolin-4-yl)oxy)bicyclo[3.1.0]hexan-6-yl)propanamide] |
| > 5000 nM | O=S(=O)(Cc1ccc(Br)cc1)NC1C2CC(Oc3ccnc4ccccc34)CC21 (centres unmarked) [Compound 27, 1-(4-bromophenyl)-N-(3-(quinolin-4-yloxy)bicyclo[3.1.0]hexan-6-yl)methanesulfonamide] |
| < 200 nM | CCC(NC(=O)c1ccc(OC)nc1)C1C2CC(Oc3ncnc4ccc(F)cc34)CC21 [Compound 78, N-(1-((1R,3s,5S,6r)-3-((6-fluoroquinazolin-4-yl)oxy)bicyclo[3.1.0]hexan-6-yl)propyl)-6-methoxynicotinamide] |
| < 200 nM | CC[C@@H](NC(=O)c1ccc(F)cc1)[C@H]1[C@@H]2C[C@@H](n3cnc4cc(F)c(F)cc43)C[C@@H]21 [Compound 306, N—((R)-1-((3S,6s)-3-(5,6-difluoro-1H-benzo[d]imidazol-1-yl)bicyclo[3.1.0]hexan-6-yl)propyl)-4-fluorobenzamide] |
| < 200 nM | CCC(NC(=O)c1ccc(Cl)cc1)C1C2CC(Oc3nncc4ccccc34)CC21 [Compound 72, 4-chloro-N-(1-((1R,3s,5S,6r)-3-(phthalazin-1-yloxy)bicyclo[3.1.0]hexan-6-yl)propyl)benzamide] |
| < 200 nM | CCC(NC(=O)c1ccc(Cl)cc1)[C@H]1[C@@H]2C[C@@H](Oc3ccnc(C)c3)C[C@@H]21 (stereo partly drawn) [Compound 15, 4-chloro-N-(1-((1R,3s,5S,6r)-3-((2-methylpyridin-4-yl)oxy)bicyclo[3.1.0]hexan-6-yl)propyl)benzamide] |
| < 200 nM | CC(NC(=O)c1ccc(Cl)cc1)[C@H]1[C@@H]2C[C@@H](Oc3ncnc4ccc(F)cc34)C[C@@H]21 (stereo partly drawn) [Compound 13, 4-chloro-N-(1-((1R,3s,5S,6r)-3-((6-fluoroquinazolin-4-yl)oxy)bicyclo[3.1.0]hexan-6-yl)ethyl)benzamide] |
| < 200 nM | CC(C(=O)Nc1ccc(Cl)cc1)[C@H]1[C@@H]2C[C@@H](Oc3ncnc4ccc(F)cc34)C[C@@H]21 (stereo partly drawn) [Compound 339, N-(4-chlorophenyl)-2-((1R,3s,5S,6r)-3-((6-fluoroquinazolin-4-yl)oxy)bicyclo[3.1.0]hexan-6-yl)propanamide] |
| < 200 nM | O=C(Cc1ccc(Cl)cc1)N[C@H]1[C@@H]2C[C@@H](Oc3ncnc4ccc(F)cc34)C[C@@H]21 [Compound 61, 2-(4-chlorophenyl)-N-((1R,3s,5S,6r)-3-((6-fluoroquinazolin-4-yl)oxy)bicyclo[3.1.0]hexan-6-yl)acetamide] |
| < 200 nM | CC[C@@H](NC(=O)c1ccc(Cl)cc1)[C@H]1[C@@H]2C[C@@H](Nc3ncnc4ccc(C)cc34)C[C@@H]21 [Compound 338, 4-chloro-N-((R)-1-((1R,3S,5S,6r)-3-((6-methylquinazolin-4-yl)amino)bicyclo[3.1.0]hexan-6-yl)propyl)benzamide] |
| < 200 nM | CCC(NC(=O)c1ccc(Cl)cc1)[C@H]1[C@@H]2C[C@@H](Nc3ncnc4ccc(F)cc34)C[C@@H]21 (stereo partly drawn) [Compound 123, 4-chloro-N-(1-((1R,3s,5S,6r)-3-((6-fluoroquinazolin-4-yl)amino)bicyclo[3.1.0]hexan-6-yl)propyl)benzamide] |
| 200 to 2000 nM | O=C(Cc1ccc(Cl)cc1)NC1[C@H]2CC(Oc3cnnc4ccccc34)C[C@@H]12 (stereo partly drawn) [Compound 79, 2-(4-chlorophenyl)-N-((1R,3s,5S,6r)-3-(cinnolin-4-yloxy)bicyclo[3.1.0]hexan-6-yl)acetamide] |
| < 200 nM | CCC(NC(=O)c1ccc(C#N)cc1)[C@H]1[C@@H]2C[C@@H](n3cnc4ccc(F)cc4c3=O)C[C@@H]21 (stereo partly drawn) [Compound 67, 4-cyano-N-(1-((1R,3s,5S,6r)-3-(6-fluoro-4-oxoquinazolin-3(4H)-yl)bicyclo[3.1.0]hexan-6-yl)propyl)benzamide] |
